The text below walks through data of PMC5620277, “The histone methyltransferase EZH2 as a druggable target in SHH medulloblastoma cancer stem cells” (Oncotarget, 2017).

One data set concerns the target T1, G9a (Homo sapiens, UniProt Q96KQ7).
T1 sequence (Q96KQ7 1-1210): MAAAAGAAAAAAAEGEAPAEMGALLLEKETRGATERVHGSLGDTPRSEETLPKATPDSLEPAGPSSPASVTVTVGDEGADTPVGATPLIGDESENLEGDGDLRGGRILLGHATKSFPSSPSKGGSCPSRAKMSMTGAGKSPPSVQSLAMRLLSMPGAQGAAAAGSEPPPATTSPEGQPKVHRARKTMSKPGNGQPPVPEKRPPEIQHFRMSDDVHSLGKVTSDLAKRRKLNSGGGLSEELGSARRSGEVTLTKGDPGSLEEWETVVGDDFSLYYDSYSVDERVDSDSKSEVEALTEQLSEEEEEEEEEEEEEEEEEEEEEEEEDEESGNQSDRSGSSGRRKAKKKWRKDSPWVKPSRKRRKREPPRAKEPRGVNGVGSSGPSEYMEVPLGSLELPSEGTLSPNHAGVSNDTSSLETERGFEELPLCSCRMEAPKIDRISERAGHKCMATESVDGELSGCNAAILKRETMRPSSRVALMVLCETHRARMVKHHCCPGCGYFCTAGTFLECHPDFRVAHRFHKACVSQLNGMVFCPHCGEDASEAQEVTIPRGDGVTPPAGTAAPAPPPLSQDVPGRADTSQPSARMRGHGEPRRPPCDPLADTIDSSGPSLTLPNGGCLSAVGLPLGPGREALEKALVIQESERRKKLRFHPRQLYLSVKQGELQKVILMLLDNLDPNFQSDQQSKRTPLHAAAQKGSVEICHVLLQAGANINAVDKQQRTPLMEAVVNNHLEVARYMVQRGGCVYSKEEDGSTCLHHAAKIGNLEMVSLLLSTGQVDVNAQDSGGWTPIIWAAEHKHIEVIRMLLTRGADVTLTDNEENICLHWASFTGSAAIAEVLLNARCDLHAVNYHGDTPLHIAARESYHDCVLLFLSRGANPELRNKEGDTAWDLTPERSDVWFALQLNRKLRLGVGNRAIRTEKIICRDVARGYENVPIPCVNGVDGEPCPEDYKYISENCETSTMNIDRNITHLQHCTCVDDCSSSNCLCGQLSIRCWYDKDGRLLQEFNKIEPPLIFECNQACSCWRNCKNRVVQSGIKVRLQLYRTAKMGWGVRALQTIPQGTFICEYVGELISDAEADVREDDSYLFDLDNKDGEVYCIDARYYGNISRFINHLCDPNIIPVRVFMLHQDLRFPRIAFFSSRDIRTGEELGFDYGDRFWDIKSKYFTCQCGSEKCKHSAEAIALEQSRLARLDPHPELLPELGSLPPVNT
As to the kind of experiment: Methyltransferase panel: G9a. Type of data set: biochemical. The settings on record: substrate histone H3 1-21. The protocol:
MC3629 was tested in the cell free enzymatic assay (EZH2/PRC2) in 10-dose IC50 mode with 2-fold serial dilution starting from 400 μM solution, using various histone substrates (histone H3/H4 octamer, histone H3/H4 tetramer, histone H3, and core histone) and SAM as the co-substrate. […] (Figure 2B, and Supplementary Figure 2).
The appropriate methyltransferase (MT) substrate (0.05 mg/ml core histone for EZH1 complex, 0.05 mg/ml oligonucleosomes for DOT1L, 5 μM histone H3 (1-21) peptide for G9a, 0.05 mg/ml nucleosomes for MLL1 complex, 0.05 mg/ml core histone for SET7/9, 5 μM histone H4 for PRMT1, and 0.001 mg/ml poly(dI-dC) for DNMT1) was added in freshly prepared Reaction Buffer (50 mM Tris-HCl (pH 8.5), 5 mM MgCl2, 50 mM NaCl, 0.01% Brij35, 1 mM DTT, 1% DMSO). The MT enzyme was delivered into the substrate solution and the mixture was mixed gently. Afterwards, the tested compound dissolved in DMSO was delivered into the enzyme/substrate reaction mixture by using Acoustic Technology (Echo 550, LabCyte Inc. Sunnyvale, CA) in nanoliter range, and 1 μM ^3H-SAM was also added into the reaction mixture to initiate the reaction. The reaction mixture was incubated for 1 h at 30°C and then it was delivered to filter-paper for detection. The data were analyzed using Excel and GraphPad Prism software for IC50 curve fits (for EZH1 complex).

The test system of the next data set is mMB-SLCs. As to the kind of experiment: Self-renewal, clonogenic assay, mMB-SLCs. The format is cell-based, mouse. The settings on record: 5 μM. Here is the method:
(§1) For self-renewal assessment, clonogenic assay was performed as previously described. Briefly: oncospheres were disaggregated with non-enzymatic cell dissociation buffer (Sigma) and cells were plated at clonal density (1-2 cells/mm^2) into 96-well plates and cultured for an appropriate number of days (7-15) until oncospheres were countable.

Another data set has as its system hMB-SLCs. As to the kind of experiment: Self-renewal, clonogenic assay, hMB-SLCs. To be noted: 5 μM. The format is cell-based, human. Here is the method:
as §1

Data set [1] is described as follows: PAMPA-BBB (porcine brain lipid extract artificial membrane). The format is in vitro ADME. The protocol:
Donor solution (500 μM or 250 μM) was prepared by diluting 10 or 5 mM DMSO compound stock solution using phosphate buffer (pH 7.4, 0.01 M). Filter membrane was coated with 5 μl of BBB-specific lipid solution prepared dissolving 16 mg of PBL (Avanti Lipids Polar, 141101P) in 600 μl of n-dodecane. Donor solution (150 μl) was added to each well of the filter plate. To each well of the acceptor plate 300 μl of solution (5% DMSO in phosphate buffer) were added. Each compound was tested in triplicate. The sandwich was incubated for 24 h at room temperature under gentle shaking. After the incubation time, the sandwich plates were separated and 250 μl of the acceptor plate were transferred to a UV quartz microtiter plate and measured by UV spectroscopy, using a Multiskan GO microplate spectrophotometer (Thermo Scientific) at 250−500 nm at step of 5 nm. Reference solutions (250 μl) were prepared diluting the sample stock solutions to the same concentration as that with no membrane barrier. The BBB permeability value Log Pe is determined applying the equation:
log Pe= log{C⋅(−ln(1−[drug]acceptor/[drug]equilibrium))},
where C=(VD⋅VA/(VD+VA)area⋅time)
In this equation, VA is the volume of the acceptor compartment (0.3 cm^3), VD is the donor volume (0.15 cm^3), area is the accessible filter area (0.24 cm^2), and time is the incubation time in seconds.
(In general: In PAMPA a lipid-coated filter parts donor from acceptor wells.)

Broadly, the inhibition is the relative decrease from the control value, in per cent. Read a low inhibition as little suppression. As to `Cc1cc(C)c(CNC(=O)c2cnn(-c3ccccc3)c2C)c(=O)[nH]1` [MC3629, N-((4,6-dimethyl-2-oxo-1,2-dihydropyridin-3-yl)methyl)-5-methyl-1-phenyl-1H-pyrazole-4-carboxamide], testing at 200 µM against G9a gave an inhibition of 5.1%. Also, the self-renewal entry in the data set on mMB-SLCs and with hMB-SLCs was “significantly reduced” in each case. In data set [1] (Pe in cm/s, pH 7.4, 24 h, room temperature, triplicate, read-out: Log Pe (converted)), the Papp at 24 h is 4.68 ×10⁻⁶ cm/s. Besides, the “Δ Log Pe” value in data set [1] (respect to propranolol) is on record as −0.12.
